Data reported in the NIST ThermoML archive (doi:10.1016/j.jct.2016.04.003).
± gives the expanded uncertainty stated by the source.

Experiment: refractive index (Na D-line) (dimensionless); xn = mol fraction of the nth substance listed
Details: 99 kPa, Liquid, Standard Abbe refractometry

CCCC[n+]1ccccc1.F[B-](F)(F)F [1-butylpyridinium tetrafluoroborate] + O
refractive index
Details | 293.15 K | 303.15 K | 313.15 K | 323.15 K
x1 = 0.0165 | 1.34819 ± 0.00035 | 1.34644 ± 0.00035 | 1.34468 ± 0.00034 | 1.34263 ± 0.00034
x1 = 0.0379 | 1.36348 ± 0.00033 | 1.3612 ± 0.00033 | 1.35896 ± 0.00033 | 1.35635 ± 0.00033
x1 = 0.0863 | 1.38639 ± 0.00032 | 1.38392 ± 0.00032 | 1.38128 ± 0.00032 | 1.37835 ± 0.00032
x1 = 0.101 | 1.39141 ± 0.00032 | 1.38881 ± 0.00032 | 1.38613 ± 0.00032 | 1.38331 ± 0.00032
x1 = 0.134 | 1.40063 ± 0.00032 | 1.39805 ± 0.00032 | 1.39527 ± 0.00032 | 1.3926 ± 0.00032
x1 = 0.243 | 1.41888 ± 0.00032 | 1.41639 ± 0.00032 | 1.41376 ± 0.00032 | 1.41106 ± 0.00032
x1 = 0.289 | 1.42371 ± 0.00032 | 1.42115 ± 0.00032 | 1.41853 ± 0.00032 | 1.41585 ± 0.00032
x1 = 0.3456 | 1.42826 ± 0.00032 | 1.42571 ± 0.00032 | 1.42304 ± 0.00032 | 1.42041 ± 0.00032
x1 = 0.4217 | 1.43287 ± 0.00032 | 1.4303 ± 0.00032 | 1.42763 ± 0.00032 | 1.42496 ± 0.00032
x1 = 0.5485 | 1.43815 ± 0.00033 | 1.43558 ± 0.00033 | 1.43295 ± 0.00033 | 1.43025 ± 0.00033
x1 = 0.6029 | 1.43987 ± 0.00034 | 1.43726 ± 0.00034 | 1.43463 ± 0.00034 | 1.43194 ± 0.00034
x1 = 0.7232 | 1.44283 ± 0.00034 | 1.44021 ± 0.00034 | 1.43755 ± 0.00034 | 1.43489 ± 0.00034
x1 = 0.8005 | 1.44431 ± 0.00035 | 1.44168 ± 0.00035 | 1.43905 ± 0.00035 | 1.43637 ± 0.00035
x1 = 0.8575 | 1.44526 ± 0.00036 | 1.44261 ± 0.00036 | 1.43999 ± 0.00036 | 1.43731 ± 0.00036
x1 = 0.9315 | 1.44633 ± 0.00036 | 1.44368 ± 0.00036 | 1.44105 ± 0.00036 | 1.43838 ± 0.00036
x1 = 1 | 1.44719 ± 0.00037 | 1.44454 ± 0.00037 | 1.44191 ± 0.00037 | 1.43923 ± 0.00037

CCC[n+]1ccccc1.F[B-](F)(F)F [1-propylpyridinium tetrafluoroborate] + O
refractive index
Details | 293.15 K | 303.15 K | 313.15 K | 323.15 K
x1 = 0.0185 | 1.34795 ± 0.00035 | 1.34613 ± 0.00034 | 1.34407 ± 0.00034 | 1.34187 ± 0.00034
x1 = 0.0287 | 1.3549 ± 0.00033 | 1.35282 ± 0.00033 | 1.35055 ± 0.00033 | 1.34817 ± 0.00033
x1 = 0.0466 | 1.36529 ± 0.00033 | 1.36297 ± 0.00033 | 1.36049 ± 0.00033 | 1.35792 ± 0.00033
x1 = 0.0766 | 1.37888 ± 0.00032 | 1.37637 ± 0.00032 | 1.37374 ± 0.00032 | 1.37105 ± 0.00032
x1 = 0.0964 | 1.38592 ± 0.00032 | 1.38337 ± 0.00032 | 1.38071 ± 0.00032 | 1.37801 ± 0.00032
x1 = 0.2011 | 1.40941 ± 0.00033 | 1.40683 ± 0.00033 | 1.40419 ± 0.00033 | 1.40152 ± 0.00033
x1 = 0.2858 | 1.41984 ± 0.00034 | 1.41727 ± 0.00034 | 1.41465 ± 0.00034 | 1.41202 ± 0.00034
x1 = 0.3993 | 1.42862 ± 0.00035 | 1.42604 ± 0.00035 | 1.42343 ± 0.00035 | 1.42083 ± 0.00035
x1 = 0.4979 | 1.4337 ± 0.00037 | 1.4311 ± 0.00037 | 1.42848 ± 0.00037 | 1.42588 ± 0.00037
x1 = 0.5772 | 1.43677 ± 0.00039 | 1.43415 ± 0.00039 | 1.43152 ± 0.00039 | 1.42891 ± 0.00039
x1 = 0.6015 | 1.43757 ± 0.0004 | 1.43495 ± 0.0004 | 1.43233 ± 0.0004 | 1.42971 ± 0.0004
x1 = 0.6695 | 1.43957 ± 0.00041 | 1.43694 ± 0.00041 | 1.4343 ± 0.00041 | 1.43169 ± 0.00041
x1 = 0.7309 | 1.44111 ± 0.00043 | 1.43847 ± 0.00043 | 1.43583 ± 0.00043 | 1.43321 ± 0.00043
x1 = 0.7771 | 1.44212 ± 0.00044 | 1.43948 ± 0.00044 | 1.43685 ± 0.00044 | 1.43422 ± 0.00044
x1 = 0.8395 | 1.44335 ± 0.00046 | 1.4407 ± 0.00046 | 1.43806 ± 0.00046 | 1.43543 ± 0.00046
x1 = 0.9054 | 1.44449 ± 0.00048 | 1.44183 ± 0.00048 | 1.43918 ± 0.00048 | 1.43656 ± 0.00048
x1 = 0.9633 | 1.44537 ± 0.0005 | 1.44271 ± 0.0005 | 1.44006 ± 0.0005 | 1.43742 ± 0.0005
x1 = 1 | 1.44588 ± 0.00051 | 1.44322 ± 0.00051 | 1.44057 ± 0.00051 | 1.43793 ± 0.00051
